From US20260306640A1, “TECHNOLOGIES TARGETING CELL STATES” (Auron Therapeutics, Inc., priority 2023, published 2026)

Legend:
Type in all cases: cell-based
KAT2A [1] = biological target: T1, KAT2A (Homo sapiens, UniProt Q92830); test: KAT2A degradation, Western Blot (Jess), NCI-H1048 cells; design: degrader, Western blot (Jess); settings: NCI-H1048 cells, KAT2A, 24 h, Western Blot, vs DMSO; read-out: KAT2A NCI-H1048 DC50
Method in brief: (§1)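 NCI-H1048 cells grown in HITES medium with 5% FBS were treated with compounds for 24 h at 37° C. Lysates were run by capillary Western (Jess) with KAT2A or KAT2B antibodies and chemiluminescent detection. DC50 derived from percent protein reduction versus DMSO control.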

MOLM-13 cells = test: Cell growth inhibition, AML cell line MOLM-13 (CyQuant, day 7); settings: Homo sapiens, 168 h; MOLM-13, day 7, CyQuant; read-out: MOLM13 GI50
From the text: Among other things, provided technologies are useful for treating various diseases, disorders, or conditions. For example, in some embodiments, provided technologies are useful for treating cancer as confirmed in the present Example. […] In some embodiments, provided technologies can inhibit cell proliferation. In some embodiments, the present disclosure provides technologies for assessing various technologies, e.g., compounds, compositions, or methods. Among other things, the present Example provides technologies, e.g., cell growth inhibition assay, for assessing various technologies. […] In some embodiments, the following cell growth inhibition methods are utilized to assess provided technologies.
AML: AML cell line MOLM-13 cells were cultured in RPMI+15% FBS and were plated at 500 cells/well in 100 uL media in a U-bottom 96-well plate. Compounds were dilute to 3×final in full media and 50 uL were added to corresponding wells. Compound and media were replenished on days 2 and 5. On day 7, cells were transferred to a 96-well black bottom plate and CyQuant was performed per manufacturer's instructions.
In some assessments, for cell growth inhibition, cells, e.g., MOLM13, NCI-H1048, and LASCPC-01 cells, were counted using a hemocytometer or automated cell counting in triplicates. In some assessments, proliferation in NEPC organoids as measured with Cell Titer Glo reagent (Promega). Growth inhibition was determined relative to vehicle control.

KAT2B = KAT2B (Homo sapiens, UniProt Q92831); test: KAT2B degradation, Western Blot (Jess), NCI-H1048 cells; design: degrader, Western blot (Jess); settings: NCI-H1048 cells, KAT2B, 24 h, Western Blot, vs DMSO; read-out: KAT2B NCI-H1048 DC50
Sequence of KAT2B (Q92831 whole entry): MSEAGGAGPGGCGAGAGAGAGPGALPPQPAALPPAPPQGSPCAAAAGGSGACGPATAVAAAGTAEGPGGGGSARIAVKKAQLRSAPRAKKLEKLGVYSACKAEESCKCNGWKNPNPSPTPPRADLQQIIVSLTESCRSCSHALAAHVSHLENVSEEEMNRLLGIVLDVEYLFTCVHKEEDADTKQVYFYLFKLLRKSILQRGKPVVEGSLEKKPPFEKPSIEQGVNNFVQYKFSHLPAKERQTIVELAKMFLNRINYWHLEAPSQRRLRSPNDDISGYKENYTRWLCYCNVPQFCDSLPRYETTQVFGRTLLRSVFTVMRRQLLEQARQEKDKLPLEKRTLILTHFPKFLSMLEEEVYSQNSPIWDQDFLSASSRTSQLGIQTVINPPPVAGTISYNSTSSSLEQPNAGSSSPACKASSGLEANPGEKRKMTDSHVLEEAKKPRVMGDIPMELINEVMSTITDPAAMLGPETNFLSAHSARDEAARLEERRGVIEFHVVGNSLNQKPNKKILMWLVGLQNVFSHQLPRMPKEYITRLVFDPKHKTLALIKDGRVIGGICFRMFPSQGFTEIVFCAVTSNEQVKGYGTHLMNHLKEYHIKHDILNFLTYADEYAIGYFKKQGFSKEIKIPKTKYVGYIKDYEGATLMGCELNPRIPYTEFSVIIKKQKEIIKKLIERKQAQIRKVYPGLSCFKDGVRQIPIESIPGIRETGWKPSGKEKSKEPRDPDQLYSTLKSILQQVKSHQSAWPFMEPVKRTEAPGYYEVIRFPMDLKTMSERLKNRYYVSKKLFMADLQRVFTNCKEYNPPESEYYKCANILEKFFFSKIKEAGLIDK
Method in brief: as §1

KAT2A [2] = biological target: T1, KAT2A; test: KAT2A degradation, Western Blot (Jess), MOLM-13 cells; design: degrader, Western blot; settings: MOLM-13 cells, KAT2A, 24 h, Western Blot, vs DMSO; read-out: KAT2A MOLM-13 DC50
Method in brief: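 MOLM-13 cells in RPMI 1640/20% FBS were treated with compound for 24 h at 37 °C. RIPA lysates (4 μg) were run on a capillary Western (Jess) with anti-KAT2A antibody and chemiluminescent detection. DC50 comes from percent protein reduction versus DMSO control.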

T1 sequence (Q92830 whole entry): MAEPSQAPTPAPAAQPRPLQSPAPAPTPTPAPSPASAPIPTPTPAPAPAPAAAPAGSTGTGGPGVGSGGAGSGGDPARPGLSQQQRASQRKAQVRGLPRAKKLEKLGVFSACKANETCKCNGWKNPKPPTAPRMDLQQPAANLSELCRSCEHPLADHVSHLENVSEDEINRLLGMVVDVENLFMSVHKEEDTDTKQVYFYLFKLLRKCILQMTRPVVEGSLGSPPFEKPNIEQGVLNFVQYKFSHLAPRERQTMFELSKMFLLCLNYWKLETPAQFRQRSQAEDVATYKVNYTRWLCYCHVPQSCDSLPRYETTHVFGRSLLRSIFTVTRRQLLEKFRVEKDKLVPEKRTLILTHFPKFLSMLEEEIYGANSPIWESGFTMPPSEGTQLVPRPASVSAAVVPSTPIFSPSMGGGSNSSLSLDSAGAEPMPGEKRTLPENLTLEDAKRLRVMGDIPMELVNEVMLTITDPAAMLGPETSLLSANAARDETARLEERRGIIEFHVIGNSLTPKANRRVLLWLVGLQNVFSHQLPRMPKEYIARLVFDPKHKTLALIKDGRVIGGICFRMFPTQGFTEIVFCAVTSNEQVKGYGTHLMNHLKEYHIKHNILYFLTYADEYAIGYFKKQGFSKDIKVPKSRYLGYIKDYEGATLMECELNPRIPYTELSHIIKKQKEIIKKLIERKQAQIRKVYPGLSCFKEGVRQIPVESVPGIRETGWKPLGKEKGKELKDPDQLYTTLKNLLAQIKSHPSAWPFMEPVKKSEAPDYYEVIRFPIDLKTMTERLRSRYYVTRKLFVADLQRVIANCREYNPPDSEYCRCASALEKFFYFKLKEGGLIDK

| DC50 (KAT2A [1]) | GI50 (MOLM-13 cells) | DC50 (KAT2B) | DC50 (KAT2A [2]) | SMILES |
| --- | --- | --- | --- | --- |
| < 1 nM | 7.3 nM | 1 to 30 nM |  | CN1C[C@H](Nc2cnn(C)c(=O)c2Cl)C[C@H](c2ccc(C(=O)N3CCC4(CCC(c5ccc(C6CCC(=O)NC6=O)cc5F)CC4)CC3)cc2)C1 (some centres unmarked) [Compound 231] |
| < 1 nM |  | > 30 nM | < 1 nM | Cc1c(N[C@@H]2C[C@H](c3ccc(CN4CCC(Oc5ccc(C6CCC(=O)NC6=O)cc5)CC4)cc3)CN(C)C2)cnn(C)c1=O (some centres unmarked) [Compound 188] |
| < 1 nM |  | 1 to 30 nM | < 1 nM | CN1C[C@H](Nc2cnn(C)c(=O)c2Br)C[C@H](c2ccc(C(=O)N3CCC4(CC3)CN(c3ccc(C5CCC(=O)NC5=O)cc3)C4)cc2)C1 (some centres unmarked) [Compound 126] |
| < 1 nM |  | > 30 nM | < 1 nM | CN1C[C@H](Nc2cnn(C)c(=O)c2Br)C[C@H](c2ccc(CN3CCC(Oc4ccc(C5CCC(=O)NC5=O)cc4F)CC3)cc2)C1 (some centres unmarked) [Compound 125] |
| 1 to 30 nM | > 100 nM | > 30 nM |  | Cc1cc(N2CCC3(CCN(C(=O)c4ccc([C@H]5C[C@@H](Nc6cnn(C)c(=O)c6Cl)CN(C)C5)cc4)CC3)CC2)c(F)cc1C1CCC(=O)NC1=O (some centres unmarked) [Compound 242] |
| < 1 nM |  | > 30 nM | < 1 nM | Cc1cc(OC2CCN(C(=O)c3ccc([C@H]4C[C@@H](Nc5cnn(C)c(=O)c5Br)CN(C)C4)cc3)CC2)ccc1C1CCC(=O)NC1=O (some centres unmarked) [Compound 114] |
| < 1 nM |  | > 30 nM | 1 to 30 nM | CN1C[C@H](Nc2cnn(C)c(=O)c2Br)C[C@H](c2ccc(CN3CC(Oc4cccc(C5CCC(=O)NC5=O)c4)C3)cc2)C1 (some centres unmarked) [Compound 184] |
| < 1 nM |  | < 1 nM | 1 to 30 nM | CN1C[C@H](Nc2cnn(C)c(=O)c2Cl)C[C@H](c2ccc(C(=O)N3CC4(CC(Oc5ccc(C6CCC(=O)NC6=O)c(F)c5)C4)C3)cc2)C1 (some centres unmarked) [Compound 2-44] |
|  | 0.3 nM |  |  | CN1CC(Nc2cnn(C)c(=O)c2Br)CC(c2ccc(C(=O)N3CCC4(CC3)CCN(c3ccc(C5CCC(=O)NC5=O)cc3)CC4)cc2)C1 (centres unmarked) [Compound 437] |
| < 1 nM | 0.9 nM | < 1 nM |  | CN1C[C@H](Nc2cnn(C)c(=O)c2Cl)C[C@H](c2ccc(C(=O)N3CCC4(CC3)CCN(c3ccc(C5CCC(=O)NC5=O)c(F)c3)CC4)cc2)C1 (stereo partly drawn) [Compound 228, 3-[4-[3-[4-[(3R,5R)-5-[(5-chloro-1-methyl-6-oxo-pyridazin-4-yl)amino]-1-methyl-3-piperidyl]benzoyl]-3,9-diazaspiro[5.5]undecan-9-yl]-2-fluoro-phenyl]piperidine-2,6-dione] |
| < 1 nM |  | 1 to 30 nM | 1 to 30 nM | CN1C[C@H](Nc2cnn(C)c(=O)c2Br)C[C@H](c2ccc(CN3CCN(c4ccc(F)c(C5CCC(=O)NC5=O)c4)CC3)cc2)C1 (some centres unmarked) [Compound 152] |
| < 1 nM | 5.7 nM | 1 to 30 nM |  | CN1C[C@H](Nc2cnn(C)c(=O)c2Br)C[C@H](c2ccc(C(=O)N3CCC4(CC3)CCN(c3ccc(OC5CCC(=O)NC5=O)cc3)CC4)cc2)C1 (some centres unmarked) [Compound 363] |
| < 1 nM |  | 1 to 30 nM | < 1 nM | CN1C[C@H](Nc2cnn(C)c(=O)c2Br)C[C@H](c2ccc(C(=O)N3CCC(Oc4ccc(C5CCC(=O)NC5=O)cc4F)CC3)cc2)C1 (some centres unmarked) [Compound 124] |
| < 1 nM |  | 1 to 30 nM | < 1 nM | CN1C[C@H](Nc2cnn(C)c(=O)c2Cl)C[C@H](c2ccc(CN3CCC(Oc4ccc(C5CCC(=O)NC5=O)cc4)CC3)cc2)C1 (some centres unmarked) [Compound 168] |
| < 1 nM |  | > 30 nM | < 1 nM | Cc1cc(OC2CCN(Cc3ccc([C@H]4C[C@@H](Nc5cnn(C)c(=O)c5Br)CN(C)C4)cc3)CC2)ccc1C1CCC(=O)NC1=O (some centres unmarked) [Compound 123] |
| < 1 nM |  | > 30 nM | 1 to 30 nM | CN1C[C@H](Nc2cnn(C)c(=O)c2Br)C[C@H](c2ccc(C(=O)N3CCC(Oc4cccc(C5CCC(=O)NC5=O)c4)CC3)cc2)C1 (some centres unmarked) [Compound 120] |
|  |  |  | 1 to 30 nM | CN1C[C@H](Nc2cnn(C)c(=O)c2Br)C[C@H](c2ccc(C(=O)N3CCN(c4ccc5c(c4)oc(=O)n5C4CCC(=O)NC4=O)CC3)cc2)C1 (some centres unmarked) [Compound 181] |
|  |  |  | 1 to 30 nM | Cc1ccc(OC2CCN(Cc3ccc([C@H]4C[C@@H](Nc5cnn(C)c(=O)c5Br)CN(C)C4)cc3)CC2)cc1C1CCC(=O)NC1=O (some centres unmarked) [Compound 122] |

Further lines, the compound ahead of its results:

| SMILES | DC50 (KAT2A [1]) | GI50 (MOLM-13 cells) | DC50 (KAT2B) | DC50 (KAT2A [2]) |
| --- | --- | --- | --- | --- |
| CN1C[C@H](Nc2cnn(C)c(=O)c2Cl)C[C@H](c2ccc(C(=O)N3CCC4(CC3)CCN(c3ccc(C5CCC(=O)NC5=O)nc3)CC4)cc2)C1 (some centres unmarked) [Compound 233] | < 1 nM | 5.5 nM | 1 to 30 nM |  |
| Cc1c(N[C@@H]2C[C@H](c3ccc(C(=O)N4CCC5(CC4)CCN(c4ccc(C6CCC(=O)NC6=O)cc4)CC5)cc3)CN(C)C2)cnn(C)c1=O (some centres unmarked) [Compound 186] | < 1 nM |  | < 1 nM | < 1 nM |
| CN1C[C@H](Nc2cnn(C)c(=O)c2Cl)C[C@H](c2ccc(CN3CCN(c4ccc5c(c4)C(=O)N(C4CCC(=O)NC4=O)C5=O)CC3)cc2)C1 (some centres unmarked) [Compound 175] | < 1 nM |  | 1 to 30 nM | < 1 nM |
| CN1C[C@H](Nc2cnn(C)c(=O)c2Cl)C[C@H](c2ccc(COc3ccc4c(c3)C(=O)N(C3CCC(=O)NC3=O)C4=O)cc2)C1 (some centres unmarked) [Compound 110] | 1 to 30 nM |  | 1 to 30 nM | 1 to 30 nM |
| CN1C[C@H](Nc2cnn(C)c(=O)c2Br)C[C@H](c2ccc(CN3CCN(c4ccc5c(c4)CN(C4CCC(=O)NC4=O)C5=O)CC3)cc2)C1 (some centres unmarked) [Compound 67] | < 1 nM |  | < 1 nM | < 1 nM |
| Cc1c(N[C@@H]2C[C@H](c3ccc(CN4CCN(c5cccc(C6CCC(=O)NC6=O)c5)CC4)cc3)CN(C)C2)cnn(C)c1=O (some centres unmarked) [Compound 187] | < 1 nM |  | 1 to 30 nM | < 1 nM |
| CN1C[C@H](Nc2cnn(C)c(=O)c2Cl)C[C@H](c2ccc(CN3CCC4(CC3)CCN(c3ccc(C5CCC(=O)NC5=O)cc3)CC4)cc2)C1 (some centres unmarked) [Compound 155] | < 1 nM |  | < 1 nM | < 1 nM |
| CN1C[C@H](Nc2cnn(C)c(=O)c2Cl)C[C@H](c2ccc(CN3CCN(c4cccc(C5CCC(=O)NC5=O)c4)CC3)cc2)C1 (some centres unmarked) [Compound 162] | < 1 nM |  | 1 to 30 nM | < 1 nM |
| CN1C[C@H](Nc2cnn(C)c(=O)c2Br)C[C@H](c2ccc(CN3CCN(c4ccc5c(c4)C(=O)N(C4CCC(=O)NC4=O)C5=O)CC3)cc2)C1 (some centres unmarked) [Compound 28] | < 1 nM |  | < 1 nM | < 1 nM |
| CN1C[C@H](Nc2cnn(C)c(=O)c2Br)C[C@H](c2ccc(C(=O)N(C)C3CCN(c4cccc5c4C(=O)N(C4CCC(=O)NC4=O)C5=O)CC3)cc2)C1 (some centres unmarked) [Compound 13] |  |  |  | 1 to 30 nM |
| Cc1c(N[C@@H]2C[C@H](c3ccc(CN4CCC(c5ccc6c(c5)CN(C5CCC(=O)NC5=O)C6=O)CC4)cc3)CN(C)C2)cnn(C)c1=O (some centres unmarked) [Compound 150] |  |  |  | < 1 nM |
| CN1C[C@H](Nc2cnn(C)c(=O)c2Br)C[C@H](c2ccc(CNCC3CCC(COc4cccc5c4C(=O)N(C4CCC(=O)NC4=O)C5=O)CC3)cc2)C1 (some centres unmarked) [Compound 35] |  |  |  | < 1 nM |
| CN1C[C@H](Nc2cnn(C)c(=O)c2Br)C[C@H](c2ccc(C(=O)N3CCN(Cc4cccc(C(=O)Nc5cccc6c5C(=O)N(C5CCC(=O)NC5=O)C6=O)c4)CC3)cc2)C1 (some centres unmarked) [Compound 57] |  |  |  | 1 to 30 nM |
| CN1C[C@H](Nc2cnn(C)c(=O)c2Br)C[C@H](c2ccc(CN3CCC(c4cccc5c4CN(C4CCC(=O)NC4=O)C5=O)CC3)cc2)C1 (some centres unmarked) [Compound 92] |  |  |  | 1 to 30 nM |
| CN1C[C@H](Nc2cnn(C)c(=O)c2Br)C[C@H](c2ccc(C(=O)NCCCCCCCCCC(=O)Nc3ccc4c(c3)CN(C3CCC(=O)NC3=O)C4=O)cc2)C1 (some centres unmarked) [Compound 3] |  |  |  | < 1 nM |
| CN1C[C@H](Nc2cnn(C)c(=O)c2Cl)C[C@H](c2ccc(CN3CCN(c4ccc5c(c4)CN(C4CCC(=O)NC4=O)C5=O)CC3)cc2)C1 (some centres unmarked) [Compound 72] | < 1 nM |  | < 1 nM | < 1 nM |
| CN1C[C@H](Nc2cnn(C)c(=O)c2Br)C[C@H](c2ccc(CN3CCC4(CC3)CN(c3ccc5c(c3)C(=O)N(C3CCC(=O)NC3=O)C5=O)C4)cc2)C1 (some centres unmarked) [Compound 108] |  |  |  | < 1 nM |
| CN1C[C@H](Nc2cnn(C)c(=O)c2Br)C[C@H](c2ccc(CN3CC(Oc4cccc5c4C(=O)N(C4CCC(=O)NC4=O)C5=O)C3)cc2)C1 (some centres unmarked) [Compound 64] |  |  |  | 1 to 30 nM |
